Laboratory results published in patent US12637465B2, “Pharmaceutically acceptable salts of sepiapterin” (PTC Therapeutics MP, Inc., priority 2018, dated 2026).

Tests used:
Assay type in all cases: physicochemical
[1] = Form change/disproportionation of residual solids by XRPD after suspension in water or Medisca Oral Mix; conditions: for Form change (residual solids, XRPD): RT; for Form of the residual solids in Medisca Oral Mix / Form of the residual solids in water: after 1 hour
Method: The kinetic solubility was evaluated for nicotinate, phosphate, L-tartrate, and fumarate salts and/or co-crystals of sepiapterin in water and […] Oral Mix. X-ray powder diffraction (XRPD) was performed for the residual solids to identify form change/disproportionation. Solids were suspended into the media with target conc. of 7 mg/mL (calculated by freebase). […] Oral Mix after 1 hour. […] Oral Mix.

[2] = Solid form stability study of salts and/or co-crystals at 25° C./60% RH and 40° C./75% RH
Method: The stability of the prepared salts and/or co-crystals was analyzed after 1 and 2 weeks at 25° C. and 60% relative humidity and 40° C. and 75% relative humidity. […] None of the phosphate, tartrate, or nicotinate salts and/or co-crystals underwent a form change during the stability testing, and each of them retained greater than 97% purity over the two weeks of the study. In fact, both the tartrate and nicotinate both retained greater than 99% purity.

[3] = Kinetic solubility in water and Medisca Oral Mix (HPLC solubility, purity and pH of supernatant); conditions: RT; for Purity (area %) of supernatant: for reference only; for Solubility: calculated using freebase, target conc. 7 mg/mL
Method: The kinetic solubility was evaluated for nicotinate, phosphate, L-tartrate, and fumarate salts and/or co-crystals of sepiapterin in water and […] Oral Mix. X-ray powder diffraction (XRPD) was performed for the residual solids to identify form change/disproportionation. Solids were suspended into the media with target conc. of 7 mg/mL (calculated by freebase).

[4] = Medisca Oral Mix, 1 hr, listed as fumarate salt and/or co-crystal
[5] = Medisca Oral Mix, 4 hr, listed as fumarate salt and/or co-crystal
[6] = Medisca Oral Mix, 24 hr, listed as fumarate salt and/or co-crystal
[7] = Water, 1 hr, listed as fumarate salt and/or co-crystal
[8] = Water, 4 hr, listed as fumarate salt and/or co-crystal
[9] = Water, 24 hr, listed as fumarate salt and/or co-crystal
[10] = Medisca Oral Mix, 1 hr, listed as L-tartrate salt and/or co-crystal
[11] = Medisca Oral Mix, 4 hr, listed as L-tartrate salt and/or co-crystal
[12] = Medisca Oral Mix, 24 hr, listed as L-tartrate salt and/or co-crystal
[13] = Water, 1 hr, listed as L-tartrate salt and/or co-crystal
[14] = Water, 4 hr, listed as L-tartrate salt and/or co-crystal
[15] = Water, 24 hr, listed as L-tartrate salt and/or co-crystal

SMILES: C[C@H](O)C(=O)C1=Nc2c(nc(N)[nH]c2=O)NC1 [Fumarate, sepiapterin]
- Disproportionation in the disproportionation study [1]: no evidence of disproportionation
- Form change (residual solids, XRPD) [1, 4]: No **
- Form change (residual solids, XRPD) [1, 5]: No **
- Form change (residual solids, XRPD) [1, 6]: No **
- Form of the residual solids in Medisca Oral Mix ([1]; Medisca Oral Mix, listed as fumarate salt and/or co-crystal): crystallinity of residual solids decreased
- Form change (residual solids, XRPD) [1, 7]: No
- Form change (residual solids, XRPD) [1, 8]: No
- Form change (residual solids, XRPD) [1, 9]: No
- Form of the residual solids in water ([1]; listed as fumarate salt and/or co-crystal): no form change was observed
- Stability in the solid form stability study of Example 2 [2]: high stability
- Form change ([2]; 1 week, 25° C./60% RH): No
- Purity (Area %) ([2]; 1 week, 25° C./60% RH): 99.39 Area %
- Purity vs. initial (%) ([2]; 1 week, 25° C./60% RH): 99.9%
- Form change ([2]; 1 week, 40° C./75% RH): No
- Purity (Area %) ([2]; 1 week, 40° C./75% RH): 99.15 Area %
- Purity vs. initial (%) ([2]; 1 week, 40° C./75% RH): 99.7%
- Purity (Area %) ([2]; 2 weeks, 25° C./60% RH): 99.25 Area %
- Purity vs. initial (%) ([2]; 2 weeks, 25° C./60% RH): 99.7%
- Purity (Area %) ([2]; 2 weeks, 40° C./75% RH): 98.98 Area %
- Purity vs. initial (%) ([2]; 2 weeks, 40° C./75% RH): 99.5%
- Purity (Area %) ([2]; Initial): 99.46 Area %
- Observation ([3]; Medisca Oral Mix, 1 hr): Turbid
- Purity (area %) of supernatant [3, 4]: 99.74 area %
- pH [3, 4]: 4.0
- Observation ([3]; Medisca Oral Mix, 4 hr): Turbid
- Purity (area %) of supernatant [3, 5]: 99.60 area %
- pH [3, 5]: 4.0
- Observation ([3]; Medisca Oral Mix, 24 hr): Turbid
- Purity (area %) of supernatant [3, 6]: 96.54 area %
- pH [3, 6]: 4.0
- Observation ([3]; Water, 1 hr): Turbid
- Purity (area %) of supernatant [3, 7]: 98.39 area %
- pH [3, 7]: 3.1
- Observation ([3]; Water, 4 hr): Turbid
- Purity (area %) of supernatant [3, 8]: 98.19 area %
- pH [3, 8]: 3.1
- Observation ([3]; Water, 24 hr): Turbid
- Purity (area %) of supernatant [3, 9]: 95.43 area %
- pH [3, 9]: 3.1

SMILES: C[C@H](O)C(=O)C1=Nc2c(nc(N)[nH]c2=O)NC1 [L-Tartrate, sepiapterin]
- Form change (residual solids, XRPD) [1, 10]: Yes
- Form change (residual solids, XRPD) [1, 11]: Yes
- Form change (residual solids, XRPD) [1, 12]: Yes
- Form of the residual solids in Medisca Oral Mix ([1]; Medisca Oral Mix): converted to freebase
- Form change (residual solids, XRPD) [1, 13]: Yes
- Form change (residual solids, XRPD) [1, 14]: Yes
- Form change (residual solids, XRPD) [1, 15]: Yes
- Form of the residual solids in water [1]: converted to freebase
- Stability compared with the other salts and/or co-crystals tested [2]: noticeably more stable than the others
- Underwent a form change during the stability testing ([2]; 1 and 2 weeks, 25° C./60% RH and 40° C./75% RH): None
- Form change ([2]; 1 week, 25° C./60% RH): No
- Purity (Area %) ([2]; 1 week, 25° C./60% RH): 98.61 Area %
- Purity vs. initial (%) ([2]; 1 week, 25° C./60% RH): 99.9%
- Form change ([2]; 1 week, 40° C./75% RH): No
- Purity (Area %) ([2]; 1 week, 40° C./75% RH): 99.06 Area %
- Purity vs. initial (%) ([2]; 1 week, 40° C./75% RH): 99.3%
- Form change ([2]; 2 weeks, 25° C./60% RH): No
- Purity (Area %) ([2]; 2 weeks, 25° C./60% RH): 99.39 Area %
- Purity vs. initial (%) ([2]; 2 weeks, 25° C./60% RH): 99.6%
- Form change ([2]; 2 weeks, 40° C./75% RH): No
- Purity (Area %) ([2]; 2 weeks, 40° C./75% RH): 99.00 Area %
- Purity vs. initial (%) ([2]; 2 weeks, 40° C./75% RH): 99.3%
- Purity (Area %) ([2]; Initial): 99.75 Area %
- Observation ([3]; Medisca Oral Mix, 1 hr): Turbid
- Purity (area %) of supernatant [3, 10]: 99.68 area %
- pH [3, 10]: 3.3
- Observation ([3]; Medisca Oral Mix, 4 hr): Turbid
- Solubility [3, 11]: 2500 µg/mL
- Purity (area %) of supernatant [3, 11]: 99.54 area %
- pH [3, 11]: 3.3
- Observation ([3]; Medisca Oral Mix, 24 hr): Turbid
- Solubility [3, 12]: 3200 µg/mL
- Purity (area %) of supernatant [3, 12]: 95.67 area %
- pH [3, 12]: 3.3
- Observation ([3]; Water, 1 hr): Turbid
- Purity (area %) of supernatant [3, 13]: 99.34 area %
- pH [3, 13]: 2.5
- Observation ([3]; Water, 4 hr): Turbid
- Purity (area %) of supernatant [3, 14]: 99.07 area %
- pH [3, 14]: 2.5
- Observation ([3]; Water, 24 hr): Turbid
- Purity (area %) of supernatant [3, 15]: 95.61 area %
- pH [3, 15]: 2.5
